# Reference: PubChem BioAssay (NCI)
#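 96-well plates; 48 h exposure; 5 concentrations. Endpoints by linear interpolation between flanking doses. Not reached: highest tested concentration assigned. The concentration for full growth arrest is given as TGI.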
# Tests used:
# Assay in all cases: NCI anticancer screen, dose series, 48 h
# [1] = test system: RXF 393 renal
# [2] = test system: ACHN renal
# [3] = test system: OVCAR-4 ovarian
# [4] = test system: SR leukemia
# [5] = test system: HT29 colon
# [6] = test system: OVCAR-5 ovarian
# [7] = test system: U251 CNS
# [8] = test system: HOP-92 NSCLC
# [9] = test system: RPMI-8226 leukemia
# [10] = test system: HS 578T breast
# [11] = test system: M14 melanoma
# [12] = test system: COLO 205 colon
# [13] = test system: NCI-H226 lung
# [14] = test system: UACC-257 melanoma
# [15] = test system: MOLT-4 leukemia
# [16] = test system: T-47D breast
# [17] = test system: SF-539 CNS
# [18] = test system: OVCAR-8 ovarian
# [19] = test system: 786-0 renal
# [20] = test system: UO-31 renal
# [21] = test system: SW-620 colon
# [22] = test system: MALME-3M melanoma
# [23] = test system: A549 NSCLC
# [24] = test system: NCI-H23 lung
# [25] = test system: SK-MEL-5 melanoma
# [26] = test system: SF-295 CNS
# [27] = test system: HCT-15 colon
# [28] = test system: UACC-62 melanoma
# [29] = test system: OVCAR-3 ovarian
# [30] = test system: CCRF-CEM leukemia
# [31] = test system: DU-145 prostate
# [32] = test system: MDA-MB-435
# [33] = test system: TK-10 renal
# [34] = test system: SN12C renal
# [35] = test system: NCI-H522 lung
# [36] = test system: HCT-116 colon
# [37] = test system: HCC-2998 colon
# [38] = test system: MDA-N
# [39] = test system: A498 renal
# [40] = test system: SK-MEL-28 melanoma
# [41] = test system: MCF7 breast
# [42] = test system: CAKI-1 renal
# [43] = test system: HOP-62 NSCLC
# [44] = test system: SK-MEL-2 melanoma
# [45] = test system: PC-3 prostate
# [46] = test system: MDA-MB-231 breast
# [47] = test system: NCI/ADR-RES ovarian
# [48] = test system: SK-OV-3 ovarian
# [49] = test system: K-562 leukemia
# [50] = test system: KM12 colon
# [51] = test system: SNB-19 CNS
# [52] = test system: NCI-H460 lung
# [53] = test system: EKVX NSCLC
# [54] = test system: SF-268 CNS
# [55] = test system: IGROV1 ovarian
# [56] = test system: HL-60(TB) leukemia
# [57] = test system: LOX IMVI melanoma
# [58] = test system: SNB-75 CNS
# [59] = test system: BT-549 breast
smiles,measurement,setting,value
CCCCC(=O)Nc1ccc2cc(C(=O)OC)c(Cl)nc2n1,TGI,[1],> 100 µM
same,TGI,[2],> 100 µM
same,TGI,[3],> 100 µM
same,TGI,[4],> 100 µM
same,TGI,[5],> 100 µM
same,TGI,[6],> 100 µM
same,TGI,[7],> 78 µM
same,TGI,[8],> 100 µM
same,TGI,[9],> 100 µM
same,TGI,[10],46.9 µM
same,TGI,[11],> 100 µM
same,TGI,[12],> 45.3 µM
same,TGI,[13],> 100 µM
same,TGI,[14],> 100 µM
same,TGI,[15],> 100 µM
same,TGI,[16],> 72.5 µM
same,TGI,[17],> 100 µM
same,TGI,[18],> 100 µM
same,TGI,[19],> 100 µM
same,TGI,[20],57.7 µM
same,TGI,[21],> 100 µM
same,TGI,[22],> 100 µM
same,TGI,[23],> 100 µM
same,TGI,[24],> 100 µM
same,TGI,[25],> 100 µM
same,TGI,[26],> 96.7 µM
same,TGI,[27],> 100 µM
same,TGI,[28],> 100 µM
same,TGI,[29],17.6 µM
same,TGI,[30],> 100 µM
same,TGI,[31],10.1 µM
same,TGI,[32],> 100 µM
same,TGI,[33],> 100 µM
same,TGI,[34],> 100 µM
same,TGI,[35],> 100 µM
same,TGI,[36],> 100 µM
same,TGI,[37],52.7 µM
same,TGI,[38],> 100 µM
same,TGI,[39],> 100 µM
same,TGI,[40],> 100 µM
same,TGI,[41],> 100 µM
same,TGI,[42],> 100 µM
same,TGI,[43],20.6 µM
same,TGI,[44],> 100 µM
same,TGI,[45],> 74.3 µM
same,TGI,[46],> 100 µM
same,TGI,[47],> 100 µM
same,TGI,[48],> 100 µM
same,TGI,[49],> 100 µM
same,TGI,[50],10.1 µM
same,TGI,[51],38 µM
same,TGI,[52],> 100 µM
same,TGI,[53],> 100 µM
same,TGI,[54],> 100 µM
same,TGI,[55],> 100 µM
same,TGI,[56],6.81 µM
same,TGI,[57],> 100 µM
same,TGI,[58],> 100 µM
same,TGI,[59],> 100 µM
Cc1cn(C2OC(CO)C(O)C2O)c(=O)[nH]c1=O (stereo not drawn),TGI,[1],> 1000 µM
same,TGI,[2],> 1000 µM
same,TGI,[3],> 1000 µM
same,TGI,[4],> 1000 µM
same,TGI,[5],> 1000 µM
same,TGI,[6],> 1000 µM
same,TGI,[7],> 1000 µM
same,TGI,[8],> 1000 µM
same,TGI,[9],> 1000 µM
same,TGI,[10],> 1000 µM
same,TGI,[11],> 1000 µM
same,TGI,[12],> 1000 µM
same,TGI,[13],> 1000 µM
same,TGI,[14],> 1000 µM
same,TGI,[15],> 1000 µM
same,TGI,[16],> 1000 µM
same,TGI,[17],> 1000 µM
same,TGI,[18],> 1000 µM
same,TGI,[19],> 1000 µM
same,TGI,[20],> 1000 µM
same,TGI,[21],> 1000 µM
same,TGI,[22],> 1000 µM
same,TGI,[23],> 1000 µM
same,TGI,[24],> 1000 µM
same,TGI,[25],> 1000 µM
same,TGI,[26],> 1000 µM
same,TGI,[27],> 1000 µM
same,TGI,[28],> 1000 µM
same,TGI,[29],> 1000 µM
same,TGI,[30],> 1000 µM
same,TGI,[31],> 1000 µM
same,TGI,[32],> 1000 µM
same,TGI,[33],> 1000 µM
same,TGI,[34],> 1000 µM
same,TGI,[35],> 1000 µM
same,TGI,[36],> 1000 µM
same,TGI,[37],> 1000 µM
same,TGI,[38],> 1000 µM
same,TGI,[39],> 1000 µM
same,TGI,[40],> 1000 µM
same,TGI,[41],> 1000 µM
same,TGI,[42],> 1000 µM
same,TGI,[43],> 1000 µM
same,TGI,[44],> 1000 µM
same,TGI,[45],> 1000 µM
same,TGI,[46],> 1000 µM
same,TGI,[47],> 1000 µM
same,TGI,[48],> 1000 µM
same,TGI,[49],> 1000 µM
same,TGI,[50],> 1000 µM
same,TGI,[51],> 1000 µM
same,TGI,[52],> 1000 µM
same,TGI,[53],> 1000 µM
same,TGI,[54],> 1000 µM
same,TGI,[55],> 1000 µM
same,TGI,[56],> 1000 µM
same,TGI,[57],> 1000 µM
same,TGI,[58],> 1000 µM
same,TGI,[59],> 1000 µM
